Test results published in the supplement of paper PMC10307832.

Key:
Assay in all cases: relative viability (nuclei count vs DMSO), 5 days (fraction); higher = more cells survive
NCI-H2009 = system: NCI-H2009
In short: (§1)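 Medians of duplicate plates are given as relative viability. That measure is the nuclei count in treated wells divided by the count in vehicle wells. Counts were taken on 4× images of lung cancer cell lines in 1536-well plates, 5 days after pin-tool dosing the day after seeding with one drug alone or a fixed anchor-drug dose plus five library-drug doses (not always all listed) in √10 steps.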

PC-14 = system: PC-14
In short: as §1

EKVX = system: EKVX
In short: as §1

LK-2 = system: LK-2
In short: as §1

HCC-366 = system: HCC-366
In short: as §1

NCI-H661 = system: NCI-H661
In short: as §1

LU99A = system: LU99A
In short: as §1

NCI-H441 = system: NCI-H441
In short: as §1

COR-L23 = system: COR-L23
In short: as §1

ABC-1 = system: ABC-1
In short: as §1

NCI-H1437 = system: NCI-H1437
In short: as §1

HARA = system: HARA
In short: as §1

CAL-12T = system: CAL-12T
In short: as §1

NCI-H2170 = system: NCI-H2170
In short: as §1

NCI-H838 = system: NCI-H838
In short: as §1

NCI-H3122 = system: NCI-H3122
In short: as §1

NCI-H727 = system: NCI-H727
In short: as §1

BEN = system: BEN
In short: as §1

NCI-H1666 = system: NCI-H1666
In short: as §1

COR-L 105 = system: COR-L 105
In short: as §1

201T = system: 201T
In short: as §1

SMILES: NC(=O)Nc1cc(-c2cccc(F)c2)sc1C(=O)N[C@H]1CCCNC1 [AZD7762] + Cc1nc(NC(=O)N2CCC[C@H]2C(N)=O)sc1-c1ccnc(C(C)(C)C(F)(F)F)c1 [Alpelisib] (partner 2 µM)
- relative viability (NCI-H2009; first compound 0.01 µM): 1.3
- relative viability (NCI-H2009; first compound 0.03162 µM): 1.15
- relative viability (NCI-H2009; first compound 0.1 µM): 1.27
- relative viability (NCI-H2009; first compound 0.3162 µM): 1.08
- relative viability (NCI-H2009; first compound 1 µM): 1.11
- relative viability (PC-14; first compound 0.01 µM): 0.894
- relative viability (PC-14; first compound 0.03162 µM): 0.953
- relative viability (PC-14; first compound 0.1 µM): 0.922
- relative viability (PC-14; first compound 0.3162 µM): 0.919
- relative viability (PC-14; first compound 1 µM): 0.392
- relative viability (EKVX; first compound 0.01 µM): 0.846
- relative viability (EKVX; first compound 0.03162 µM): 0.845
- relative viability (EKVX; first compound 0.1 µM): 0.805
- relative viability (EKVX; first compound 0.3162 µM): 0.787
- relative viability (EKVX; first compound 1 µM): 0.468
- relative viability (LK-2; first compound 0.01 µM): 1.21
- relative viability (LK-2; first compound 0.03162 µM): 0.946
- relative viability (LK-2; first compound 0.1 µM): 0.976
- relative viability (LK-2; first compound 0.3162 µM): 0.838
- relative viability (LK-2; first compound 1 µM): 0.618
- relative viability (HCC-366; first compound 0.01 µM): 0.45
- relative viability (HCC-366; first compound 0.03162 µM): 0.521
- relative viability (HCC-366; first compound 0.1 µM): 0.229
- relative viability (HCC-366; first compound 0.3162 µM): 0.189
- relative viability (HCC-366; first compound 1 µM): 0.134
- relative viability (NCI-H661; first compound 0.01 µM): 0.712
- relative viability (NCI-H661; first compound 0.03162 µM): 0.611
- relative viability (NCI-H661; first compound 0.1 µM): 0.761
- relative viability (NCI-H661; first compound 0.3162 µM): 0.491
- relative viability (NCI-H661; first compound 1 µM): 0.35
- relative viability (LU99A; first compound 0.01 µM): 0.575
- relative viability (LU99A; first compound 0.03162 µM): 0.568
- relative viability (LU99A; first compound 0.1 µM): 0.543
- relative viability (LU99A; first compound 0.3162 µM): 0.514
- relative viability (LU99A; first compound 1 µM): 0.329
- relative viability (NCI-H441; first compound 0.01 µM): 1.17
- relative viability (NCI-H441; first compound 0.03162 µM): 0.831
- relative viability (NCI-H441; first compound 0.1 µM): 1.2
- relative viability (NCI-H441; first compound 0.3162 µM): 1.01
- relative viability (NCI-H441; first compound 1 µM): 1.09
- relative viability (COR-L23; first compound 0.01 µM): 0.938
- relative viability (COR-L23; first compound 0.03162 µM): 0.895
- relative viability (COR-L23; first compound 0.1 µM): 0.797
- relative viability (COR-L23; first compound 0.3162 µM): 0.621
- relative viability (COR-L23; first compound 1 µM): 0.162
- relative viability (ABC-1; first compound 0.01 µM): 1.03
- relative viability (ABC-1; first compound 0.03162 µM): 0.831
- relative viability (ABC-1; first compound 0.1 µM): 0.942
- relative viability (ABC-1; first compound 0.3162 µM): 0.557
- relative viability (ABC-1; first compound 1 µM): 0.311
- relative viability (NCI-H1437; first compound 0.01 µM): 0.995
- relative viability (NCI-H1437; first compound 0.03162 µM): 0.962
- relative viability (NCI-H1437; first compound 0.1 µM): 1
- relative viability (NCI-H1437; first compound 0.3162 µM): 1
- relative viability (NCI-H1437; first compound 1 µM): 1
- relative viability (HARA; first compound 0.01 µM): 0.889
- relative viability (HARA; first compound 0.03162 µM): 0.887
- relative viability (HARA; first compound 0.1 µM): 0.825
- relative viability (HARA; first compound 0.3162 µM): 0.751
- relative viability (HARA; first compound 1 µM): 0.824
- relative viability (CAL-12T; first compound 0.01 µM): 1.3
- relative viability (CAL-12T; first compound 0.03162 µM): 1.18
- relative viability (CAL-12T; first compound 0.1 µM): 1.24
- relative viability (CAL-12T; first compound 0.3162 µM): 0.955
- relative viability (CAL-12T; first compound 1 µM): 0.155
- relative viability (NCI-H2170; first compound 0.01 µM): 0.843
- relative viability (NCI-H2170; first compound 0.03162 µM): 0.75
- relative viability (NCI-H2170; first compound 0.1 µM): 0.727
- relative viability (NCI-H2170; first compound 0.3162 µM): 0.797
- relative viability (NCI-H2170; first compound 1 µM): 0.776
- relative viability (NCI-H838; first compound 0.01 µM): 1
- relative viability (NCI-H838; first compound 0.03162 µM): 1.01
- relative viability (NCI-H838; first compound 0.1 µM): 0.871
- relative viability (NCI-H838; first compound 0.3162 µM): 0.959
- relative viability (NCI-H838; first compound 1 µM): 0.616
- relative viability (NCI-H3122; first compound 0.01 µM): 0.768
- relative viability (NCI-H3122; first compound 0.03162 µM): 0.866
- relative viability (NCI-H3122; first compound 0.1 µM): 0.737
- relative viability (NCI-H3122; first compound 0.3162 µM): 0.748
- relative viability (NCI-H3122; first compound 1 µM): 0.758
- relative viability (NCI-H727; first compound 0.01 µM): 0.583
- relative viability (NCI-H727; first compound 0.03162 µM): 0.561
- relative viability (NCI-H727; first compound 0.1 µM): 0.471
- relative viability (NCI-H727; first compound 0.3162 µM): 0.466
- relative viability (NCI-H727; first compound 1 µM): 0.218
- relative viability (BEN; first compound 0.01 µM): 1.21
- relative viability (BEN; first compound 0.03162 µM): 0.992
- relative viability (BEN; first compound 0.1 µM): 0.883
- relative viability (BEN; first compound 0.3162 µM): 1.06
- relative viability (BEN; first compound 1 µM): 0.845
- relative viability (NCI-H1666; first compound 0.01 µM): 1.12
- relative viability (NCI-H1666; first compound 0.03162 µM): 1.24
- relative viability (NCI-H1666; first compound 0.1 µM): 1.18
- relative viability (NCI-H1666; first compound 0.3162 µM): 1.02
- relative viability (NCI-H1666; first compound 1 µM): 0.75
- relative viability (COR-L 105; first compound 0.01 µM): 1.2
- relative viability (COR-L 105; first compound 0.03162 µM): 1.03
- relative viability (COR-L 105; first compound 0.1 µM): 0.92
- relative viability (COR-L 105; first compound 0.3162 µM): 0.847
- relative viability (COR-L 105; first compound 1 µM): 0.461
- relative viability (201T; first compound 0.01 µM): 1.01
- relative viability (201T; first compound 0.03162 µM): 1.05
- relative viability (201T; first compound 0.1 µM): 1.02
- relative viability (201T; first compound 0.3162 µM): 1.08
- relative viability (201T; first compound 1 µM): 1.11
